Measured values: patent US9557338B2 (SIGNAL PHARMACEUTICALS, LLC, priority 2012, dated 2017)

How the values were obtained:
Type in all cases: cell-based
Phospho-PRAS40(T246) = test: Luminex multiplex assay, Phospho-PRAS40(T246); conditions: PC3 cell line; read-out: Luminex PRAS40
Text: (§1) Determination of Phospho-GSK3β(S9), Phospho-PRAS40(T246) and Phospho-4E-BP1(T46) and the Effect of Compound 1 or Rapamycin.
(§2) The multiplex Luminex assay format differs from conventional enzyme-linked immunosorbent assay (ELISA) in that the multiplex capture antibody is attached to a polystyrene bead whereas the ELISA capture antibody is attached to the microplate well. The use of the suspension bead-based technology enables the multiplexing capabilities of the Luminex assays. The xMAP® technology uses 5.6 micron polystyrene microspheres, which are internally dyed with red and infrared fluorophores of differing intensities. Each bead is given a unique number, or bead region, allowing differentiation of one bead from another. Beads covalently bound to different specific antibodies can be mixed in the same assay, utilizing a 96-well microplate format. At the completion of the sandwich immunoassay, beads can be read, using the Luminex 100™ or Luminex 200 detection system, in single-file by dual lasers for classification and quantification of each analyte. The Akt-Pathway Phospho 5-plex kit used was custom made and includes the ability to simultaneously measure p-GSK3β (S9), p-PRAS40(T246), and p-4E-BP1(T46).
(§3) Cells were plated at the required density. The cells were treated with either Compound 1 or rapamycin over a range of concentrations for 1 hour in 5% CO2 at 37° C. Compound 1 and rapamycin were used at the same concentrations as for the proliferation assay. As for the cell proliferation assay, a reference standard was included in the assay for PC3 cells and the coefficient of variation for assay of p-GSK3β(S9) was 37.8% (n=30), p-PRAS40(T246) was 27.8% (n=30) and for p4E-BP1(T46) was 13.5% (n=4). For three cell lines (HCT-116, MDA-MB-231 and HT29) in the assay for phosphorylation of GSK3β, PRAS40 and 4E-BP1, IGF-I stimulation (500 ng/mL, recombinant human IGF-I) for the last 10 min of incubation was used. The media was aspirated from the wells and the plate was placed on ice. Then 35 μL of Lysis Buffer was added to each well and incubated on ice for at least 30 minutes. During the incubation, the standard curve for each phosphoprotein was prepared. The standards provided were reconstituted and serial dilutions were prepared according to the manufacturer's instructions. At the end of the cell lysis step, […] of the lysate was transferred to a V-bottom plate and spun at 4° C. at 2000 rpm for 5 minutes. Both the 1× Luminex bead and 1× detector antibody solutions were prepared during this time. The 1× bead solution was vortexed and 25 μL was added into each well of a black round bottom plate. Then 50 μL of the 1× detector antibody was added to each well. Fifty microliters (50 μL) of the prepared standards were added to the designated wells. Then 25 μL of the assay diluent was added to each well designated for the compound-treated cell lysates. At the end of the spin, 25 μL of cell lysate was added to the corresponding wells of the black assay plate. The assay plate was covered with the white plate lid and incubated for 3 hours at room temperature on an orbital shaker.
(§4) Approximately 10-15 minutes prior to the end of the first incubation, the secondary antibody solution was prepared according to the vendor's protocol. Goat anti-rabbit R-phycoerythrin red fluorescent protein (RPE) supplied as a 10× concentrate was diluted to generate a 1× goat anti-rabbit RPE stock. The 96-well filter plate was pre-wet with 200 μL of 1× Working wash solution. At the end of the 3 hour incubation, a multichannel pipette was used to transfer the entire contents from each assay well into the wells of the filter plate. The liquid from the wells was removed by aspiration with the vacuum manifold. Then 200 μL of 1× Working wash solution was added into each well. The wash solution was aspirated using the vacuum manifold after 15-30 seconds. This wash step was repeated one time. The bottom of the plate was blotted on clean paper towels to remove residual liquid. […]

Phospho-GSK3β(S9) = test: Luminex multiplex assay, Phospho-GSK3β(S9); conditions: PC3 cell line; read-out: Luminex GSK-3β
Text: as §1, §2, §3, §4

p70S6K = test: Luminex multiplex assay, p70S6K phosphorylation in cell lysates; conditions: PC3 cell line; read-out: Luminex p70S6K
Text: as §2, §3, §4

Structure (SMILES) | IC50 (Phospho-PRAS40(T246)) [µM] | IC50 (Phospho-GSK3β(S9)) [µM] | IC50 (p70S6K) [µM]
CO[C@H]1CC[C@H](N2CC(=O)Nc3ncc(-c4ccc(C(C)(C)O)nc4)nc32)C1 [C-24] | 3.66 | > 5 | 0.843
CO[C@@H]1CC[C@@H](CN2CC(=O)Nc3ncc(-c4ccc(C(C)(C)O)nc4)nc32)C1 [C-25] | 0.705 | 1.78 | 0.094
CO[C@H]1CC[C@H](CN2CC(=O)Nc3ncc(-c4ccc(C(C)(C)O)nc4)nc32)C1 [C-26] | 0.498 | 1.43 | 0.104
COCCN1C(=O)CNc2ncc(-c3ccc(-c4nnc[nH]4)c(F)c3)nc21 [C-27] | 0.027 | 0.032 | 0.008
CO[C@@H]1CC[C@H](N2CC(=O)Nc3ncc(-c4ccc(C(C)(C)O)nc4)nc32)C1 [C-28] | 2.36 | > 5 | 0.452
COC1CCC(N2CC(=O)Nc3ncc(-c4ccc(C(C)(C)O)nc4)nc32)C1 (stereo not drawn) [C-29] | 2.13 | > 5 | 0.235
Cc1cc(-c2nnc[nH]2)ncc1-c1cnc2c(n1)N(CC1CCOCC1)C(C)(C)C(=O)N2 [C-30] | 0.005 | 0.021 | 0.001
Cc1cc(-c2nnc[nH]2)ccc1-c1cnc2c(n1)N(Cc1ccccc1)C(=O)CN2 [C-31] | 0.014 | > 5 | 0.002
COCCN1CC(=O)Nc2ncc(-c3ccc(-c4nnc[nH]4)c(F)c3C)nc21 [C-32] | 0.059 | 0.169 | 0.012
Cc1c(-c2cnc3c(n2)N(CCC2CCOCC2)CC(=O)N3)ccc(-c2nnc[nH]2)c1F [C-34] | 1.52 | > 5 | 0.021
Cc1cc(-c2cnc3c(n2)N(CC2CCOCC2)C(=O)CN3)cc2[nH]c(=O)[nH]c12 [C-38] | 3.25 | > 5 | 5
CNc1nc2c(C)cc(-c3cnc4c(n3)N(CCOC)C(=O)CN4)cc2[nH]1 [C-39] | 1.41 | > 5 | 0.283
O=C1CN(CCC2CCOCC2)c2nc(-c3ccc4[nH]ccc4c3)cnc2N1 [C-40] | > 5 | > 5 | 1.52
O=C1CN(CCC2CCOCC2)c2nc(-c3ccc4cc[nH]c4c3)cnc2N1 [C-41] | 5 | 3.18 | 0.746
COC1CCC(CN2C(=O)CNc3ncc(-c4ccc(C(C)(C)O)nc4)nc32)CC1 (stereo not drawn) [C-42] | 0.044 | 0.268 | 0.016
COCCn1c(=O)[nH]c2ncc(-c3cnc4[nH]ccc4c3)nc21 [C-43] | 0.524 | 0.214 | 0.201
O=C1CN(CCC2CCOCC2)c2nc(-c3cnc4[nH]ccc4c3)cnc2N1 [C-44] | 0.098 | 0.313 | 0.017
CC(C)(O)c1ccc(-c2cnc3c(n2)N(C2CCOCC2)C(=O)CN3)cn1 [C-47] | 1.47 | 3.11 | 0.497
COC1CCC(N2C(=O)CNc3ncc(-c4ccc(C(C)(C)O)cc4)nc32)CC1 (stereo not drawn) [C-48] | 0.415 | 0.502 | 0.08
O=C1CNc2ncc(-c3ccc4cc[nH]c4c3)nc2N1CCC1CCOCC1 [C-49] | 1.99 | 3.84 | 0.468
CO[C@H]1CC[C@H](N2CC(=O)Nc3ncc(-c4ccc(-c5nnc[nH]5)nc4C)nc32)C1 [C-50] | > 0.5 | > 0.5 | 0.048
COC1CCC(N2CC(=O)Nc3ncc(-c4ccc(-c5nnc[nH]5)nc4C)nc32)C1 (stereo not drawn) [C-51] | 0.816 | 0.859 | 0.046
COC1CCC(N2CC(=O)Nc3ncc(-c4ccc(-c5nnc[nH]5)nc4C)nc32)C1 (stereo not drawn) [C-52] | 0.96 | 1.1 | 0.088

Structure (SMILES) | IC50 (Phospho-PRAS40(T246)) [µM] | IC50 (Phospho-GSK3β(S9)) [µM] | IC50 (p70S6K) [µM]
COC1CCC(N2CC(=O)Nc3ncc(-c4ccc(-c5nnc[nH]5)nc4C)nc32)C1 (stereo not drawn) [C-53] | 1.16 | 1.14 | 0.232
O=C1CNc2ncc(-c3ccc4[nH]ccc4c3)nc2N1CCC1CCOCC1 [C-55] | 0.228 | 0.341 | 0.025
CO[C@H]1CC[C@H](N2C(=O)CNc3ncc(-c4ccc(-c5nnc[nH]5)nc4C)nc32)C1 [C-56] | 0.113 | 0.269 | 0.045
CO[C@H]1CC[C@@H](N2C(=O)CNc3ncc(-c4ccc(-c5nnc[nH]5)nc4C)nc32)C1 [C-57] | 0.123 | 0.17 | 0.006
CO[C@@H]1CC[C@@H](N2C(=O)CNc3ncc(-c4ccc(-c5nnc[nH]5)nc4C)nc32)C1 [C-58] | 0.209 | 0.507 | 0.048
COC1CCC(N2C(=O)CNc3ncc(-c4ccc(-c5nnc[nH]5)nc4C)nc32)C1 (stereo not drawn) [C-59] | 0.099 | 0.126 | 0.028
O=C1CNc2ncc(-c3cnc4[nH]ccc4c3)nc2N1CCC1CCOCC1 [C-61] | 0.021 | 0.033 | 0.003
O=C1CNc2ncc(-c3ccc4[nH]ncc4c3)nc2N1CCC1CCOCC1 [C-62] | 0.349 | 0.568 | 0.033
NC(=O)c1ccc(-c2cnc3c(n2)N(CCC2CCOCC2)C(=O)CN3)cc1 [C-63] | 0.842 | 0.927 | 0.216
CC(C)(O)c1ccc(-c2cnc3c(n2)N([C@H]2CC[C@@H](O)CC2)C(=O)CN3)cn1 [C-64] | 0.349 | 0.299 | 0.061
CC(C)(O)c1ccc(-c2cnc3c(n2)N([C@H]2CC[C@H](O)CC2)C(=O)CN3)cn1 [C-65] | 0.207 | 0.266 | 0.04
O=C1CNc2ncc(-c3cnc4nc[nH]c4c3)nc2N1CCC1CCOCC1 [C-67] | > 1.5 | > 1.5 | > 1.5
O=C1CN(CCC2CCOCC2)c2nc(-c3ccc4cn[nH]c4c3)cnc2N1 [C-68] | > 1.5 | > 1.5 | 0.752
CC(C)(O)c1ccc(-c2cnc3c(n2)N(CCN2CCOCC2)C(=O)CN3)cn1 [C-70] | > 1.5 | 0.7 | 0.54
O=C1CN(CCC2CCOCC2)c2nc(-c3cnc4nc[nH]c4c3)cnc2N1 [C-74] | > 1.5 | > 1.5 | > 1.5
O=C1CNc2ncc(-c3ccc4cn[nH]c4c3)nc2N1CCC1CCOCC1 [C-75] | > 1.5 | > 1.5 | 0.173
O=c1[nH]c2ncc(-c3ccc(C4(O)COC4)nc3)nc2n1CCC1CCOCC1 [C-76] | > 1.5 | > 1.5 | > 1.5
O=c1[nH]c2ncc(-c3ccc(C4(O)COC4)cn3)nc2n1CCC1CCOCC1 [C-77] | > 1.5 | > 1.5 | > 1.5
COC1CCC(N2C(=O)CNc3ncc(-c4ccc(C(C)(C)O)nc4)nc32)C1 (stereo not drawn) [C-78] | > 1.5 | > 1.5 | 1.29
CO[C@H]1CC[C@H](N2C(=O)CNc3ncc(-c4ccc(C(C)(C)O)nc4)nc32)C1 [C-79] | > 1.5 | > 1.5 | 0.981
CO[C@@H]1CC[C@H](N2C(=O)CNc3ncc(-c4ccc(C(C)(C)O)nc4)nc32)C1 [C-80] | 0.724 | 0.841 | 0.133
COC1CCC(N2C(=O)CNc3ncc(-c4ccc(C(C)(C)O)nc4)nc32)C1 (stereo not drawn) [C-81] | 0.847 | > 1.5 | 0.134
COC1CCC(N2CC(=O)Nc3ncc(-c4cnc(C(N)=O)cc4C)nc32)CC1 (stereo not drawn) [C-82] | > 1.5 | > 1.5 | 0.467
